Where “and” joins values, the source holds several entries; their conditions need not be identical. Equal entries are not always repeated. Entries after “also recorded” stand apart in the source; their conditions may differ.
What was measured:
INS-1E cells [1] = experiment: Cytotoxicity CellTiter-Glo assay; conditions: all tested concentrations, 24 h
Protocol: Assay plates were shaken vigorously for 1 min at RT to achieve completed cell lysis. Luminescence intensity was detected on Envision plate reader (Perkin Elmer, MA).

ITK = ITK (Homo sapiens, UniProt Q08881); experiment: Nanosyn kinase profiling, mobility shift assay; conditions: read-out: % inhibition by neratinib
ITK, sequence (Q08881 whole entry): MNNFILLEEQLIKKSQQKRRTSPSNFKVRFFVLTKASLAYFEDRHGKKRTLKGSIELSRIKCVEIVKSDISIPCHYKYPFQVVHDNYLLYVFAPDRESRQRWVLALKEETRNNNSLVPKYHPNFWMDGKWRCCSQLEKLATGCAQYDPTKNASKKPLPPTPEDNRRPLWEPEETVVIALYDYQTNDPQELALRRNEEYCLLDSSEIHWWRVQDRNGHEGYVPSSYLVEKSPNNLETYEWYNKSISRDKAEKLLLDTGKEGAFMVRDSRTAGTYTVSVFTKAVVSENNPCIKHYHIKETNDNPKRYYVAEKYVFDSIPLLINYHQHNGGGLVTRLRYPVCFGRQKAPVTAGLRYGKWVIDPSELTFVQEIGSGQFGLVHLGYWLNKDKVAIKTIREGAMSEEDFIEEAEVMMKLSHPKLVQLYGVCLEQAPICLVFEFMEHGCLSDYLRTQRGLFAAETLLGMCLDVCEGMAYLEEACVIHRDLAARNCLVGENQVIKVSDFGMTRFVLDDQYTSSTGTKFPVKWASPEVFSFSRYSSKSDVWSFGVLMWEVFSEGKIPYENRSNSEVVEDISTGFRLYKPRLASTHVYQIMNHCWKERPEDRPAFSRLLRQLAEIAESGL

CSK = CSK (Homo sapiens, UniProt P41240); experiment: Nanosyn kinase profiling, mobility shift assay; conditions: read-out: % inhibition by neratinib
CSK, sequence (P41240 whole entry): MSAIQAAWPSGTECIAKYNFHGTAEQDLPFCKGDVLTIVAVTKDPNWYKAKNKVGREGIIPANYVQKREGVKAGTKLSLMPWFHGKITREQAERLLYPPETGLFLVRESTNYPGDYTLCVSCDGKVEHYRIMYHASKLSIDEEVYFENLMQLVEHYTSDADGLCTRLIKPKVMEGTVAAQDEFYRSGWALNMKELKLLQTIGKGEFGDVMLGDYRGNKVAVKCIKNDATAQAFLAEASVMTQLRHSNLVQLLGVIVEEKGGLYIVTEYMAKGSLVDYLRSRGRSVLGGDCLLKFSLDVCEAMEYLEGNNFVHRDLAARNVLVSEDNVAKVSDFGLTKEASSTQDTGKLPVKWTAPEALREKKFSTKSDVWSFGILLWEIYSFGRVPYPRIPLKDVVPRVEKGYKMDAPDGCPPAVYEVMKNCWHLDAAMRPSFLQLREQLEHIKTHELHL

MLD–STZ C57BL/6J mice = experiment: MLD–STZ model: β-cell mass; format: in vivo, mouse; set-up: BCM: unit not given here
Protocol: C57Bl/6J mice were injected with 40 mg/kg streptozotocin or citrate buffer for 5 consecutive days. […] In d, basal glucose values were normalized to 100%. e Insulin secretion measured from retro-orbital blood draw during an ipGTT measured before (0 min) and 15 min after glucose injection; data are expressed as the ratio of secreted insulin at 15 min/0 min (stimulatory index). f The ratio of secreted insulin and glucose is calculated at fed state. g–i Mice were killed at day 35. g β-cell mass (given as percentage of the whole pancreatic section from ten sections spanning the width of the pancreas) and quantitative analyses from triple staining for h TUNEL or i Ki67, insulin, and DAPI expressed as percentage of TUNEL- or Ki67-positive β-cells ±SEM. An average number of 2331 (h), or 26369 (i) β-cells were counted. n = 9 mice/group for (a); n = 4–12 for (b); n = 5–15 for (c) and (d); n = 12–19 for (e); n = 8–14 for (f); n = 4–9 for (g); n = 4–11 for (h); and n = 6–11 mice/groupfor (i); all from three independent experiments).
(§1) For morphometric data, ten sections (spanning the width of the pancreas) per mouse were analyzed. Pancreatic tissue area and insulin-positive area were determined by computer-assisted measurements by using a Nikon MEA53200 (Nikon GmbH, Dusseldorf, Germany) microscope, and images were acquired by using NIS-Elements software (Nikon). β-cell mass was obtained by multiplying the β-cell fraction by the weight of the pancreas.

INS-1E cells [2] = experiment: Caspase-3 activation Nucview assay, thapsigargin; format: cell-based, rat; conditions: 0.1 µM thapsigargin, NucView 488
Protocol: Apoptosis was induced after 24 h of compound treatment by 0.1 µM Thapsigargin (Torics, Bristol, United Kingdom) with caspase-3 substrate, Nucview 488 (Biotium, CA) in the treatment.
1 50 Supplementary Figure 3
100 Cell number Cell Number
evaluated through Nucview488 and Hoechst33342.
were analyzed through qRT-PCR.
detected on plate reader.

MST1–LATS2 signaling = experiment: Western blot of YAP-S127 phosphorylation (MST1/LATS2 overexpression); conditions: 10 μM, last 24 h
SYK = SYK (Homo sapiens, UniProt P43405); experiment: Nanosyn kinase profiling, mobility shift assay; conditions: read-out: % inhibition by neratinib
MAPKAPK-2 = MAPKAPK-2 (Homo sapiens, UniProt P49137); experiment: Nanosyn kinase profiling, mobility shift assay; conditions: read-out: % inhibition by neratinib
MAPKAPK-2, sequence (P49137 whole entry): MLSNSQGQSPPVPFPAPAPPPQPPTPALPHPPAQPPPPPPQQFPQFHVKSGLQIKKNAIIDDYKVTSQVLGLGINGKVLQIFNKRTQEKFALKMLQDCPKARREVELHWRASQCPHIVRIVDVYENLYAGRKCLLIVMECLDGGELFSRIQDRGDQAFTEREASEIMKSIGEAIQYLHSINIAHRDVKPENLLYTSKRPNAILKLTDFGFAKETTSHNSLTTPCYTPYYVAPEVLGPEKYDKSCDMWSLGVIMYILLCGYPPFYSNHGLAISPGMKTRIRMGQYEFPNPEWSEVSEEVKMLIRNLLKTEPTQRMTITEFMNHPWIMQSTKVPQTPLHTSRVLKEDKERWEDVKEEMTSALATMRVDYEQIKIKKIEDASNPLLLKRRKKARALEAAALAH

FAK = FAK (Homo sapiens, UniProt Q05397); experiment: Nanosyn kinase profiling, mobility shift assay; conditions: read-out: % inhibition by neratinib
FAK, sequence (Q05397 whole entry): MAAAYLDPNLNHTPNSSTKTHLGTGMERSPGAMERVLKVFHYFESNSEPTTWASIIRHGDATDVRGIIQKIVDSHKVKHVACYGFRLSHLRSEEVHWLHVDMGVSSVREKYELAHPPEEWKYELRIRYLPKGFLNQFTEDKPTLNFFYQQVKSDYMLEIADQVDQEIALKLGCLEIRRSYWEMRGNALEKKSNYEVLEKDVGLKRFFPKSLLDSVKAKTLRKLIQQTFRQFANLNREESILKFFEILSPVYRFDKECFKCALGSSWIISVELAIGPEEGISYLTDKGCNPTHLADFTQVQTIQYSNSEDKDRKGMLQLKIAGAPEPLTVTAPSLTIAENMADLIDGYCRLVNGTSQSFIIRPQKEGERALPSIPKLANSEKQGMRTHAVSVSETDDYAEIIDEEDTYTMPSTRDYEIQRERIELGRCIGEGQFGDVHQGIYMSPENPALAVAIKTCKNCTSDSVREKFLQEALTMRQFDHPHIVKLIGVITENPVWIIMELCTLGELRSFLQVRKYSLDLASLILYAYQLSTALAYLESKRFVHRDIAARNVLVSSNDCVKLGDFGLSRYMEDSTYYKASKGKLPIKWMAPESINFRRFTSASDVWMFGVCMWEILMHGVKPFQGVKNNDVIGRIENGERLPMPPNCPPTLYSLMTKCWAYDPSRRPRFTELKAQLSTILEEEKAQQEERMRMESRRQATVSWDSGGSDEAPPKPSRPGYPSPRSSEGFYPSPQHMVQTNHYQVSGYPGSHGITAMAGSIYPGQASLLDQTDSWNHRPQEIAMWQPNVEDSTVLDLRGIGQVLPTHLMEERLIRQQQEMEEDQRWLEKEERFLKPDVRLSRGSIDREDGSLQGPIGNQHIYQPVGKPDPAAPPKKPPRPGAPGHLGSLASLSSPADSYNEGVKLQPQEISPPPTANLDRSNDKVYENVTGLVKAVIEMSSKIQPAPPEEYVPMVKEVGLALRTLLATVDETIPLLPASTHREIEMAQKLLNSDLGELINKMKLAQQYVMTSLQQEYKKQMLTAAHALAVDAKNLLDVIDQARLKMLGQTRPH

INS-1E cells [3] = experiment: Western blot of pMST1, caspase-3/PARP cleavage, PDX1, BIM under diabetogenic conditions; format: cell-based, rat
Protocol: . pThr183), caspase-3 and PARP cleavage, PDX1, tubulin, and actin were analyzed by western blotting. Representative Western blots and pooled quantitative densitometry analysis are shown from three independent cell line experiments (n = 3). […]; all by Student’s t tests.
. pThr183), caspase-3 and PARP cleavage, and BIM and actin were analyzed by western blotting. Representative Western blots (b) and pooled quantitative densitometry analysis (c) are shown from 3–6 independent culture dishes (n = 3–6). […]; all by Student’s t tests.
Human islets were isolated from eight pancreases of nondiabetic organ donors at PRODO Labs and at Lille University and cultured on extracellular matrix-coated dishes (Novamed, Jerusalem, Israel)[62] or on Biocoat Collagen I coated dishes (#356400, Corning, ME, USA). […] The clonal rat β-cell line INS-1E was kindly provided by Dr. Claes Wollheim, Geneva & Lund University. Human islets were cultured in complete CMRL-1066 (Invitrogen) medium at 5.5 mM glucose, mouse islets and INS-1E cells at complete RPMI-1640 medium at 11.1 mM glucose. […] . Palmitic acid (Sigma) was dissolved at 10 mmol/l in RPMI-1640 medium containing 11% fatty acid–free bovine serum albumin (BSA) (Sigma) under an N2-atmosphere and added to the culture at 0.5 mM[64]. […] . Isolated human islets or INS-1E cells were infected with adenovirus carrying LacZ as control or MST1 or LATS2 (all Vector Biolabs), at a multiplicity of infection of 100 (human islets) or 20 (INS-1E) for 4 h[11]. Adenovirus was subsequently washed off with PBS and replaced by fresh medium with 10% FBS and the respective analysis performed after 48 h post infection.

[4] = system: obese diabetic Lepr db/db mice; experiment: db/db model: β-cell mass; format: in vivo, mouse; conditions: for BCM: dbdb mice
From the text: Data are representative of six mice per group (n = 6 for (a–f)). g–j Mice were killed at day 31. g β-cell mass (given as percentage of the whole pancreatic section from ten sections spanning the width of the pancreas; n = 5 mice/group) and quantitative analyses from triple stainings for (h) TUNEL, (i) Ki67, (j) pHH3, and (k) nuclear PDX1 expression, insulin, and DAPI expressed as percentage of TUNEL-, Ki67-, pHH3-, or nuclear PDX1-positive β-cells ± SEM. An average number of 13667 (h), 5937 (i), 7108 (j), or 4330 (k) β-cells were counted from n = 3–5 (h, i, k) or n = 5–6 (j) mice/group.
as §1

LCK = LCK (Homo sapiens, UniProt P06239); experiment: biochemical; conditions: read-out: % inhibition by neratinib
LCK, sequence (P06239 whole entry, species assumed): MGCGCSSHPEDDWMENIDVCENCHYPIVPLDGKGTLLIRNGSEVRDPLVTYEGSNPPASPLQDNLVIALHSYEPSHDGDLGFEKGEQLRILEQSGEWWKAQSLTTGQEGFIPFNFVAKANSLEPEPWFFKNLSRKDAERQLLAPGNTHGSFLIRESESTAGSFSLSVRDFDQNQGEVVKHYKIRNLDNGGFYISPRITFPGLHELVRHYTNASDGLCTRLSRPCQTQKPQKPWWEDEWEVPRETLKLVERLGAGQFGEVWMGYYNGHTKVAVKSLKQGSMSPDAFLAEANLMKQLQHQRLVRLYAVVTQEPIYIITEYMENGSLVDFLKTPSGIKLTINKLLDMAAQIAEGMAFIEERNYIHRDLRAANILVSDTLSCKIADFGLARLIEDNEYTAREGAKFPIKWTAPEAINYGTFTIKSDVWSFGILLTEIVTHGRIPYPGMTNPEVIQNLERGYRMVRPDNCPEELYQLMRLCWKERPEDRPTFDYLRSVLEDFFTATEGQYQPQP

human islets = experiment: β-cell apoptosis (TUNEL/insulin) after Ad-MST1 overexpression; conditions: for mean TUNEL/isolation/%: MST1 OE + NERA 10 μM 48 h
[5] = MLD–STZ model: body weight; format: in vivo, mouse; conditions: 5 mg/kg i.p. daily, 35 days
TYK2 = TYK2 (Homo sapiens, UniProt P29597); experiment: Nanosyn kinase profiling, mobility shift assay; conditions: read-out: % inhibition by neratinib
TYK2, sequence (P29597 whole entry): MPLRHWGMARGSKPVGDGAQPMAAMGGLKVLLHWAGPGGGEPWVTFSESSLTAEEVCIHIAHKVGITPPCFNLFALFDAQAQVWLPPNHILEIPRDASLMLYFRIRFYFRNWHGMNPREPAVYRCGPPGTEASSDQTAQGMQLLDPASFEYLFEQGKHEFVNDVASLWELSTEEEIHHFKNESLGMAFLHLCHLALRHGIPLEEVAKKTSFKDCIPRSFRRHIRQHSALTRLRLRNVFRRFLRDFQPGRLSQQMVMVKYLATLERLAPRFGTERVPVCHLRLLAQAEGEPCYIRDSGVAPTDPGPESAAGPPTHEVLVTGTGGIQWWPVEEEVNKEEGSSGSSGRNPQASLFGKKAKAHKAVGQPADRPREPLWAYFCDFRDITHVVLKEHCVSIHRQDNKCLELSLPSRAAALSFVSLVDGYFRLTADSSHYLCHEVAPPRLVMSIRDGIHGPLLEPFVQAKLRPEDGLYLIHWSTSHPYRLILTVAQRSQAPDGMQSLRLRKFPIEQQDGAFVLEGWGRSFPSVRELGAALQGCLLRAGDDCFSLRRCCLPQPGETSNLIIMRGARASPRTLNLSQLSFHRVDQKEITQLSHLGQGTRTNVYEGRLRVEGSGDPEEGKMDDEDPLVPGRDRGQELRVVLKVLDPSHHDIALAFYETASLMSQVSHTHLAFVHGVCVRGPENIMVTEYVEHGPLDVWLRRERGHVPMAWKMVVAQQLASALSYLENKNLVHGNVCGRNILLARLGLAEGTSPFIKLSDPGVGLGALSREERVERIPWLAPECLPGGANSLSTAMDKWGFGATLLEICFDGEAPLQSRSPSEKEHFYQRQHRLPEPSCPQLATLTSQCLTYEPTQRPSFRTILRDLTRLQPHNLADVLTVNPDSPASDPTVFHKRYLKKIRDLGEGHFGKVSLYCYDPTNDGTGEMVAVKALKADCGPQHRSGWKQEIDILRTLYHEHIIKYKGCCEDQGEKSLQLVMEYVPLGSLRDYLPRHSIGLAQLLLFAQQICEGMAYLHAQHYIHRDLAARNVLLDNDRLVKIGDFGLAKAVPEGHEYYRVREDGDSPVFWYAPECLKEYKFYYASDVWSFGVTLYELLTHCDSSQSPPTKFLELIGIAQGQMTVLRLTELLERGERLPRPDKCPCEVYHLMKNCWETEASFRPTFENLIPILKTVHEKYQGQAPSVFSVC

## CCOc1cc2ncc(C#N)c(Nc3ccc(OCc4ccccn4)c(Cl)c3)c2cc1NC(=O)/C=C/CN(C)C [neratinib]
INS-1E cells [1]
  basal cell viability (steady-state ATP): no evidence of interference on basal cell viability
ITK
  inhibition at 10 µM: 88%
CSK
  inhibition at 10 µM: 95%
MLD–STZ C57BL/6J mice; NeraCtr group (no STZ), MEAN
  BCM: 1.179
MLD–STZ C57BL/6J mice; NeraCtr group (no STZ), individual mice
  BCM: 1.212 and 1.511 and 1.035 and 0.9571
MLD–STZ C57BL/6J mice; NeraSTZ group, MEAN
  BCM: 0.6212
MLD–STZ C57BL/6J mice; NeraSTZ group, individual mice
  BCM: 1.314 and 0.4366 and 0.7768 and 0.269 and 0.7149 and 0.2555 and 0.5691 and 0.3836 and 0.8706
MLD–STZ C57BL/6J mice; STZ mice, day 35
  β-cell mass: restored β-cell mass
INS-1E cells [2]
  caspase-3 activation induced by thapsigargin: dose-dependently abolished
MST1–LATS2 signaling
  MST1/LATS2-induced YAP-S127 phosphorylation: strongly inhibited
SYK
  inhibition at 10 µM: -14%
MAPKAPK-2
  inhibition at 10 µM: 7%
FAK
  inhibition at 10 µM: 8%
INS-1E cells [3]; 22.2 mM glucose, 72 h
  PDX1 expression reduced by elevated glucose: restored PDX1 expression
INS-1E cells [3]; 72 h
  H2O2- and high glucose/palmitate-induced MST1 activation and apoptosis (caspase-3 and PARP cleavage): potently inhibited
INS-1E cells [3]; HG/Pal, 10 μM, 24 h
  mitochondrial BIM induction under diabetic conditions: significantly reduced
  stress-induced MST1 activation and caspase-3 and PARP cleavage: strongly counteracted
[4]; db/db, day 31
  β-cell mass: increased β-cell mass
[4]; Mean
  BCM: 4.571
[4]; individual mice
  BCM: 1.526 and 8.3226 and 3.26 and 4.639 and 5.1069
LCK
  inhibition at 10 µM: 96%
Human islets; 10 μM, 48 h
  β-cell apoptosis induced by MST1 overexpression: significantly blocked; also recorded: almost fully blocked
Human islets; mean, LacZ = 100
  mean TUNEL/isolation/%: 126.263%
Human islets; single isolations, LacZ mean = 100
  mean TUNEL/isolation/%: 100% and 145.455% and 133.333%
[5]
  body weight: no influence on body weight
TYK2
  inhibition at 10 µM: 15%

Source: publication PMC6825211 (Nature Communications, 2019)
